Laboratory results: US12655156B2, “Oxadiazolopyrazines and oxadiazolopyridines useful as mitochondrial uncouplers” (Virginia Tech Intellectual Properties, Inc., priority 2018, dated 2026)

Columns and labels:
[1] = system: whole cells (NMuLi, C2C12, and L6 cells, isolated cardiomyocytes, human primary fibroblasts); assay: Oxygen consumption rate (OCR) in whole cells, Seahorse XF-24 Flux Analyzer; format: cell-based; conditions: increase in OCR; binned EC50 values
Outline: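 NMuLi, C2C12 and L6 cells (3.5×10^4/well), cardiomyocytes (4×10^4/well) and human primary fibroblasts (1.1×10^4/well) adhered 24 h, then equilibrated 30 min at 37° C in unbuffered DMEM with pyruvate and glutamine, pH 7.4. Compounds injected during run; OCR read over 2 min periods. EC50 for OCR increase, binned.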

[2] = system: Male C57BL/6J mice on western diet; assay: Diet induced obesity reversal mouse study; format: in vivo; conditions: WD containing 1-112, ~60 mg/kg/day
Text: FIGS. 2A-2C. Diet induced obesity reversal data, for mice given a regular chow diet, a Western diet, or a Western diet plus compound 1-112. FIG. 2A, Body mass versus time; FIG. 2B, fat mass (measured by EchoMRI) versus time; FIG. 2C, food intake (last 14 days) versus time.
Male C57BL/6J mice aged 3 months were assigned to either normal chow diet (Chow, n=5) or western diet (WD, n=10) for 28 days. After 28 days half of the WD group were switched to WD containing compound 1-112 at a concentration resulting in consumption of ˜60 mg/kg/day 1-112 (1-112 60 mpk). Body mass (A), fat mass (measured by EchoMRI (B)), and food intake (C, for the final 14 days) were recorded as indicated.

humans = conditions: patients consuming ~300 mg/d, over several months, without changes in food intake; cited from earlier work

Oc1nc2nonc2nc1Nc1ccc(-c2ccc(F)cc2)cc1 [1-112, 6-((4′-fluoro-[1,1′-biphenyl]-4-yl)amino)-[1,2,5]oxadiazolo[3,4-b]pyrazin-5-ol]
EC50 [1]: ≤ 5 µM | Body mass ([2]; after 28 days of WD): lost body weight | Fat mass (measured by EchoMRI) ([2]; after 28 days of WD): lost body weight and fat mass | Food intake ([2]; final 14 days): without a significant change in food intake

O=[N+]([O-])c1ccc(O)c([N+](=O)[O-])c1 [DNP, 2,4-dinitrophenol]
Average weight loss (humans): 1.5 pounds per week

CCCC#Cc1ccc(Nc2nc3nonc3nc2O)c(F)c1 [1-62, 6-((2-Fluoro-4-(pent-1-yn-1-yl)phenyl)amino)-[1,2,5]oxadiazolo[3,4-b]pyrazin-5-ol]
EC50 [1]: ≤ 5 µM

Oc1nc2nonc2nc1Nc1ccc(-c2cc(F)cc(F)c2)cc1 [1-121, 6-((3′,5′-difluoro-[1,1′-biphenyl]-4-yl)amino)-[1,2,5]oxadiazolo[3,4-b]pyrazin-5-ol]
EC50 [1]: ≤ 5 µM
